Laboratory results reported in US11339447B2, “System and method for determining Kareniticin sensitivity on cancer” (CROWN BIOSCIENCE, INC. (TAICANG), priority 2017, dated 2022).

Key:
Experiment in all cases: karenitecin treatment of PDX model
Assay type in all cases: in vivo
Parameters in all cases: key to Response: responder: responded to karenitecin treatment (AUC<0.5 and TGI>0.8); non_responder: did not respond to karenitecin treatment (AUC>0.5 and TGI<0.6)
Settings in all cases: karenitecin treatment for two weeks
PDX CR0126 = tested on: PDX CR0126
Description: (§1) A cohort of 48 PDX models in 8 cancers were used in this study. Those models were subject to karenitecin treatment for two weeks. Both tumor growth inhibition (TGI) and median AUC (area under curve) ratio, a newly developed metric to evaluate drug efficacy, were calculated (Table 1). Those models can be divided into two categories according to TGI and median AUC ratio.

PDX PA3065 = tested on: PDX PA3065
Description: as §1

PDX LU2071 = tested on: PDX LU2071
Description: as §1

PDX LU1155 = tested on: PDX LU1155
Description: as §1

PDX OV0243 = tested on: PDX OV0243
Description: as §1

PDX PA1301 = tested on: PDX PA1301
Description: as §1

PDX CR0133 = tested on: PDX CR0133
Description: as §1

PDX OV0273 = tested on: PDX OV0273
Description: as §1

PDX ES2267 = tested on: PDX ES2267
Description: as §1

PDX CR1451 = tested on: PDX CR1451
Description: as §1

PDX CR1560 = tested on: PDX CR1560
Description: as §1

PDX SA0271 = tested on: PDX SA0271
Description: as §1

PDX LU0884 = tested on: PDX LU0884
Description: as §1

PDX GA3055 = tested on: PDX GA3055
Description: as §1

PDX LU1868 = tested on: PDX LU1868
Description: as §1

PDX OV1658 = tested on: PDX OV1658
Description: as §1

PDX GL1208 = tested on: PDX GL1208
Description: as §1

PDX GA3109 = tested on: PDX GA3109
Description: as §1

Question: With `CC[C@@]1(O)C(=O)OCc2c1cc1n(c2=O)Cc2c-1nc1ccccc1c2CC[Si](C)(C)C` [karenitecin] as the compound, how does the “Median AUC ratio” value (PDX CR0126) read?
Answer: Its value is 1.399.

Question: And the Response (PDX CR0126)?
Answer: The Response was “non_responder”.

Question: What about the TGI (PDX CR0126) of the same compound?
Answer: Its TGI is −0.308.

Question: What about the “Median AUC ratio” value (PDX PA3065) of the same compound?
Answer: Its value is 0.309.

Question: And the Response (PDX PA3065)?
Answer: The Response was “responder”.

Question: What about the TGI (PDX PA3065) of the same compound?
Answer: The TGI was 1.019.

Question: What about the “Median AUC ratio” value (PDX LU2071) of the same compound?
Answer: Its value is 0.037.

Question: What about the Response (PDX LU2071) of the same compound?
Answer: The Response was “responder”.

Question: And the TGI (PDX LU2071)?
Answer: The TGI was 1.099.

Question: What about the “Median AUC ratio” value (PDX LU1155) of the same compound?
Answer: Its value is 0.406.

Question: And the Response (PDX LU1155)?
Answer: Its Response is “responder”.

Question: What about the TGI (PDX LU1155) of the same compound?
Answer: Its TGI is 0.991.

Question: What about the “Median AUC ratio” value (PDX OV0243) of the same compound?
Answer: Its value is −1.983.

Question: What about the Response (PDX OV0243) of the same compound?
Answer: Its Response is “responder”.

Question: What about the TGI (PDX OV0243) of the same compound?
Answer: The TGI was 1.449.

Question: And the “Median AUC ratio” value (PDX PA1301)?
Answer: Its value is 1.038.

Question: What about the Response (PDX PA1301) of the same compound?
Answer: The Response was “non_responder”.

Question: What about the TGI (PDX PA1301) of the same compound?
Answer: Its TGI is 0.285.

Question: What about the “Median AUC ratio” value (PDX CR0133) of the same compound?
Answer: Its value is 0.275.

Question: What about the Response (PDX CR0133) of the same compound?
Answer: Its Response is “responder”.

Question: What about the TGI (PDX CR0133) of the same compound?
Answer: Its TGI is 0.905.

Question: What about the “Median AUC ratio” value (PDX OV0273) of the same compound?
Answer: Its value is −0.092.

Question: What about the Response (PDX OV0273) of the same compound?
Answer: The Response was “responder”.

Question: What about the TGI (PDX OV0273) of the same compound?
Answer: Its TGI is 1.052.

Question: And the “Median AUC ratio” value (PDX ES2267)?
Answer: Its value is −0.288.

Question: What about the Response (PDX ES2267) of the same compound?
Answer: The Response was “responder”.

Question: What about the TGI (PDX ES2267) of the same compound?
Answer: Its TGI is 1.240.

Question: And the “Median AUC ratio” value (PDX CR1451)?
Answer: Its value is 0.069.

Question: What about the Response (PDX CR1451) of the same compound?
Answer: Its Response is “responder”.

Question: And the TGI (PDX CR1451)?
Answer: The TGI was 1.173.

Question: What about the “Median AUC ratio” value (PDX CR1560) of the same compound?
Answer: Its value is 0.397.

Question: What about the Response (PDX CR1560) of the same compound?
Answer: The Response was “responder”.

Question: And the TGI (PDX CR1560)?
Answer: The TGI was 1.146.

Question: What about the “Median AUC ratio” value (PDX SA0271) of the same compound?
Answer: Its value is −0.133.

Question: And the Response (PDX SA0271)?
Answer: The Response was “responder”.

Question: And the TGI (PDX SA0271)?
Answer: The TGI was 1.104.

Question: And the “Median AUC ratio” value (PDX LU0884)?
Answer: Its value is 1.497.

Question: What about the Response (PDX LU0884) of the same compound?
Answer: The Response was “non_responder”.

Question: And the TGI (PDX LU0884)?
Answer: The TGI was −0.188.

Question: And the “Median AUC ratio” value (PDX GA3055)?
Answer: Its value is −0.072.

Question: What about the Response (PDX GA3055) of the same compound?
Answer: The Response was “responder”.

Question: And the TGI (PDX GA3055)?
Answer: The TGI was 1.215.

Question: What about the “Median AUC ratio” value (PDX LU1868) of the same compound?
Answer: Its value is 0.915.

Question: What about the Response (PDX LU1868) of the same compound?
Answer: The Response was “non_responder”.

Question: And the TGI (PDX LU1868)?
Answer: Its TGI is 0.534.

Question: And the “Median AUC ratio” value (PDX OV1658)?
Answer: The value was 0.764.

Question: What about the Response (PDX OV1658) of the same compound?
Answer: Its Response is “non_responder”.

Question: What about the TGI (PDX OV1658) of the same compound?
Answer: The TGI was 0.433.

Question: And the “Median AUC ratio” value (PDX GL1208)?
Answer: The value was 0.811.

Question: What about the Response (PDX GL1208) of the same compound?
Answer: The Response was “non_responder”.

Question: And the TGI (PDX GL1208)?
Answer: Its TGI is 0.135.

Question: What about the “Median AUC ratio” value (PDX GA3109) of the same compound?
Answer: Its value is 0.137.

Question: What about the Response (PDX GA3109) of the same compound?
Answer: The Response was “responder”.

Question: What about the TGI (PDX GA3109) of the same compound?
Answer: The TGI was 1.046.
